Test results as given in patent US10231453B2, “5-substituted imidazole derivatives” (BAYER CROPSCIENCE AKTIENGESELLSCHAFT, priority 2015, dated 2019).
Read-outs that look alike come from different tables or passages of the source.

Tests used:
[1] = Measurement of LogP values by HPLC on reversed phase columns (EEC directive 79/831 Annex V.A8); format: physicochemical; details: method [a]: LC-UV, acidic range, 0.1% formic acid in water and acetonitrile as eluent; Table 1
Procedure: Measurement of Log P values was performed as outlined above.

Alternaria brassicae = assay: In vivo preventive test on Alternaria brassicae (leaf spot on radish), Examples A and R1; details: Alternaria brassicae, 144 h
Botrytis cinerea [2] = assay: In vivo preventive test on Botrytis cinerea (grey mould) on gherkin, Examples B, Q1 and R2; details: for pest or weed control at 500 ppm / pest or weed control at 100 ppm: Botrytis cinerea; for pest or weed control at 100 ppm: Example Q1, rate of application 100 ppm
Puccinia recondita = assay: In vivo preventive test on Puccinia recondita (brown rust on wheat), Examples C and R3; details: Puccinia recondita, 264 h, preventive spray, evaluated 11 days after inoculation
Pyrenophora teres = assay: In vivo preventive test on Pyrenophora teres (net blotch on barley), Examples D, Q2 and R4; details: Pyrenophora teres, 336 h
Septoria tritici [3] = assay: In vivo preventive test on Septoria tritici (leaf spot on wheat), Examples E, Q3 and R5; details: Zymoseptoria tritici, 576 h
Sphaerotheca fuliginea = assay: In vivo preventive test on Sphaerotheca fuliginea (powdery mildew on cucurbits), Examples F and R6; details: Podosphaera fuliginea, 360 h, preventive spray, evaluated 15 days after inoculation
Uromyces appendiculatus = assay: In vivo preventive test on Uromyces appendiculatus (bean rust), Examples G and R7; details: 264 h, preventive spray, evaluated 11 days after inoculation
Alternaria solani = assay: In vivo preventive Alternaria test (tomatoes), Example H; details: 72 h, 100 ppm of active ingredient, preventive spray, evaluated 3 days after inoculation, read-out: efficacy
Phakopsora pachyrhizi = assay: In vivo preventive Phakopsora test (soybeans), Example I; details: 168 h, 100 ppm of active ingredient, preventive spray, evaluated 7 days after inoculation, read-out: efficacy
[4] = system: Blumeria graminis fsp. hordei; assay: In vivo preventive Blumeria test (barley), Example K; details: 168 h, 500 ppm of active ingredient, preventive spray, evaluated 7 days after inoculation, read-out: efficacy
Description: After the spray coating has been dried, the plants are dusted with spores of Blumeria graminis fsp. hordei.

Leptosphaeria nodorum [5] = assay: In vivo preventive Leptosphaeria nodorum test (wheat), Example N; details: Parastagonospora nodorum, 192 h, 500 ppm of active ingredient, preventive spray, evaluated 8 days after inoculation, read-out: efficacy
Description: After the spray coating has been dried, the plants are sprayed with a spore suspension of Leptosphaeria nodorum.

Pyricularia oryzae = assay: whole plant or invertebrate; format: in vivo; details: 192 h, read-out: efficacy
Botrytis cinerea [6] = assay: In vitro test for the calculation of the ED50-value with microorganisms, Example Q4: Botrytis cinerea; format: cell-based; details: liquid culture, spore suspension, 4 to 7 days incubation, spectrometric measurement of mycelium growth
Leptosphaeria nodorum [7] = assay: In vitro test for the calculation of the ED50-value with microorganisms, Example Q4: Leptosphaeria nodorum; format: cell-based; details: liquid culture, spore suspension, 4 to 7 days incubation, spectrometric measurement of mycelium growth
Septoria tritici [8] = assay: In vitro test for the calculation of the ED50-value with microorganisms, Example Q4: Septoria tritici; format: cell-based; details: liquid culture, spore suspension, 4 to 7 days incubation, spectrometric measurement of mycelium growth
Fusarium culmorum [9] = assay: In vitro test for the calculation of the ED50-value with microorganisms, Example Q4: Fusarium culmorum; format: cell-based; details: liquid culture, spore suspension, 4 to 7 days incubation, spectrometric measurement of mycelium growth
Procedure: • Solvent: Dimethyl sulfoxide • Culture medium: 14.6 g anhydrous D-glucose (VWR), 7.1 g Mycological Peptone (Oxoid), 1.4 g granulated Yeast Extract (Merck), QSP liter • Inoculum: Spore suspension
Fungicides were solubilized in DMSO and the solution used to prepare the required range of concentrations. The final concentration of DMSO used in the assay was ≤1%.
A spore suspension was prepared and diluted to the desired spore density.
Fungicides were evaluated for their ability to inhibit spore germination and mycelium growth in liquid culture assay. The compounds were added in the desired concentration to the culture medium with spores. After 4 to 7 days incubation, fungi-toxicity of compounds was determined by spectrometric measurement of mycelium growth. Inhibition of fungal growth was determined by comparing the absorbance values in wells containing the fungicides with the absorbance in control wells without fungicides.

Venturia inaequalis = assay: In vivo preventive Venturia test (apples), Example J; details: 240 h, read-out: efficacy
Procedure: After the spray coating has dried on, the plants are inoculated with an aqueous conidia suspension of the causal agent of apple scab (Venturia inaequalis) and then remain for 1 day in an incubation cabinet at approximately 20° C. and a relative atmospheric humidity of 100%.
The plants are then placed in a greenhouse at approximately 21° C. and a relative atmospheric humidity of approximately 90%.
The test is evaluated 10 days after the inoculation.

Fusarium culmorum [10] = assay: In vivo preventive Fusarium culmorum test (wheat), Example L; details: 120 h, 500 ppm of active ingredient, preventive spray, evaluated 5 days after inoculation, read-out: efficacy
Procedure: After the spray coating has been dried, the plants are slightly injured by using a sandblast and afterwards they are sprayed with a conidia suspension of Fusarium culmorum.
The test is evaluated 5 days after the inoculation.

Fusarium graminearum = assay: whole plant or invertebrate; format: in vivo; details: in Hordeum vulgare, 120 h, read-out: efficacy
[11] = system: Fusarium nivale (var. majus); assay: In vivo preventive Fusarium nivale (var. majus) test (wheat), Example O; details: Microdochium nivale, 120 h, 500 ppm of active ingredient, preventive spray, evaluated 5 days after inoculation, read-out: efficacy
Description: After the spray coating has been dried, the plants are slightly injured by using a sandblast and afterwards they are sprayed with a conidia suspension of Fusarium nivale (var. majus).

[12] = 500 ppm of active ingredient, preventive spray, evaluated 4 to 5 days after inoculation, read-out: efficacy
[13] = Example Q1, rate of application 500 ppm, read-out: Efficacy in %
[14] = Example R2, rate of application 100 ppm
[15] = Example R2, rate of application 500 ppm
[16] = 500 ppm of active ingredient, wheat, read-out: efficacy
[17] = Example R3, wheat, read-out: Efficacy in %
[18] = Example R3, wheat, 500 ppm, read-out: Efficacy in %
[19] = 500 ppm of active ingredient, preventive spray, evaluated 14 days after inoculation, read-out: efficacy
[20] = Example Q2, rate of application 100 ppm, read-out: Efficacy in %
[21] = Example Q2, rate of application 500 ppm, read-out: Efficacy in %
[22] = Example R4, rate of application 100 ppm, read-out: Efficacy in %
[23] = Example R4, rate of application 500 ppm, read-out: Efficacy in %
[24] = 500 ppm of active ingredient, wheat, preventive spray, evaluated 24 days after inoculation, read-out: efficacy
[25] = Example Q3, rate of application 100 ppm, wheat, read-out: Efficacy in %
[26] = Example Q3, rate of application 500 ppm, wheat, read-out: Efficacy in %
[27] = Example R5, wheat, preventive spray, 100 ppm, evaluated 24 days after inoculation, read-out: Efficacy in %
[28] = Example R5, wheat, preventive spray, 500 ppm, evaluated 24 days after inoculation, read-out: Efficacy in %
[29] = 500 ppm of active ingredient, gherkin, read-out: efficacy
[30] = Example R6, gherkin, read-out: Efficacy in %
[31] = Example R6, gherkin, 500 ppm, read-out: Efficacy in %
[32] = 500 ppm of active ingredient, bean, read-out: efficacy
[33] = Example R7, bean, read-out: Efficacy in %
[34] = Example R7, bean, 500 ppm, read-out: Efficacy in %

Compound	pest or weed control at 500 ppm (Botrytis cinerea [2]; [12]) [%]	pest or weed control at 100 ppm (Botrytis cinerea [2]; read-out: Efficacy in %) [%]	pest or weed control at 500 ppm (Botrytis cinerea [2]; [13]) [%]	Efficacy in % (Botrytis cinerea [2]; [14]) [%]	Efficacy in % (Botrytis cinerea [2]; [15]) [%]	pest or weed control at 500 ppm (Puccinia recondita; [16]) [%]	pest or weed control at 100 ppm (Puccinia recondita; [17]) [%]	pest or weed control at 500 ppm (Puccinia recondita; [18]) [%]	pest or weed control at 500 ppm (Pyrenophora teres; [19]) [%]	pest or weed control at 100 ppm (Pyrenophora teres; [20]) [%]	pest or weed control at 500 ppm (Pyrenophora teres; [21]) [%]	pest or weed control at 100 ppm (Pyrenophora teres; [22]) [%]	pest or weed control at 500 ppm (Pyrenophora teres; [23]) [%]	pest or weed control at 500 ppm (Septoria tritici [3]; [24]) [%]	pest or weed control at 100 ppm (Septoria tritici [3]; [25]) [%]	pest or weed control at 500 ppm (Septoria tritici [3]; [26]) [%]	pest or weed control at 100 ppm (Septoria tritici [3]; [27]) [%]	pest or weed control at 500 ppm (Septoria tritici [3]; [28]) [%]	pest or weed control at 500 ppm (Sphaerotheca fuliginea; [29]) [%]	pest or weed control at 100 ppm (Sphaerotheca fuliginea; [30]) [%]	further results
OC(Cc1ccc(Cl)cc1F)(Cn1cncc1Cl)C1(Cl)CC1 (centres unmarked) [Example I-27, 2-(1-chlorocyclopropyl)-1-(4-chloro-2-fluorophenyl)-3-(5-chloro-1H-imidazol-1-yl)propan-2-ol]	90 to 100	99	100	99	100	90 to 100	89	98	90 to 100	94	98	94	98	90 to 100	81	94	94	81	90 to 100	100	chromatographic logP [1]: 2.48; pest or weed control at 500 ppm (Alternaria brassicae; 500 ppm of active ingredient, preventive spray, evaluated 6 days after inoculation, read-out: efficacy): 90 to 100%; pest or weed control at 100 ppm (Alternaria brassicae; Example R1, rate of application 100 ppm, read-out: Efficacy in %): 50%; pest or weed control at 500 ppm (Alternaria brassicae; Example R1, rate of application 500 ppm, read-out: Efficacy in %): 92%; pest or weed control at 500 ppm (Sphaerotheca fuliginea; [31]): 100%; pest or weed control at 500 ppm (Uromyces appendiculatus; [32]): 90 to 100%; pest or weed control at 100 ppm (Uromyces appendiculatus; [33]): 20%; pest or weed control at 500 ppm (Uromyces appendiculatus; [34]): 100%; pest or weed control at 100 ppm (Alternaria solani): 90 to 100%; pest or weed control at 100 ppm (Phakopsora pachyrhizi): 90 to 100%; pest or weed control at 500 ppm [4]: 90 to 100%; pest or weed control at 500 ppm (Leptosphaeria nodorum [5]): 90 to 100%; pest or weed control at 500 ppm (Pyricularia oryzae): 90 to 100%; Botrytis cinerea ED50 value in ppm (Botrytis cinerea [6]): 0.02 ppm; Leptosphaeria nodorum ED50 value in ppm (Leptosphaeria nodorum [7]): <0.006 ppm; Septoria tritici ED50 value in ppm (Septoria tritici [8]): <0.006 ppm; Fusarium culmorum ED50 value in ppm (Fusarium culmorum [9]): <0.006 ppm; pest or weed control at 100 ppm (Venturia inaequalis): 90 to 100%
N#Cc1cncn1CC(O)(Cc1ccc(Cl)cc1F)C1(Cl)CC1 (centres unmarked) [Example I-29]	90 to 100	86	99	86	99	90 to 100	94	98	80 to 89	83	89	83	89	90 to 100	100	100	100	100	90 to 100	100	pest or weed control at 500 ppm (Sphaerotheca fuliginea; [31]): 100%; pest or weed control at 500 ppm (Uromyces appendiculatus; [32]): 90 to 100%; pest or weed control at 100 ppm (Uromyces appendiculatus; [33]): 100%; pest or weed control at 500 ppm (Uromyces appendiculatus; [34]): 100%; pest or weed control at 100 ppm (Alternaria solani): 90 to 100%; pest or weed control at 100 ppm (Phakopsora pachyrhizi): 90 to 100%; pest or weed control at 500 ppm [4]: 90 to 100%; pest or weed control at 500 ppm (Fusarium culmorum [10]): 80 to 89%; pest or weed control at 500 ppm (Fusarium graminearum): 90 to 100%; pest or weed control at 500 ppm (Leptosphaeria nodorum [5]): 90 to 100%; pest or weed control at 500 ppm [11]: 90 to 100%; Botrytis cinerea ED50 value in ppm (Botrytis cinerea [6]): 0.26 ppm; Leptosphaeria nodorum ED50 value in ppm (Leptosphaeria nodorum [7]): 0.02 ppm; Septoria tritici ED50 value in ppm (Septoria tritici [8]): <0.006 ppm; Fusarium culmorum ED50 value in ppm (Fusarium culmorum [9]): 0.01 ppm; pest or weed control at 100 ppm (Venturia inaequalis): 90 to 100%
